# Data published in ChEMBL document CHEMBL3507680, “University of Dundee, Gates Library screen for HepG2 cell viability”.
# Assay: Human HepG2 cell viability assay in 384 well format
# Type: toxicity, cell-based
# Design: dose 125 nL, time 70.5 hour; cytotoxicity at 70.5 h: concentration not given beside the values
# Settings: HepG2 cells, read-out: Inhibition
row,Compound,cytotoxicity at 70.5 h
1,Cc1ccccc1C1(C(=O)NCCN(C(C)C)C(C)C)CCOCC1,-10%
2,CCNC(=O)NC[C@H]1COCc2nc3cc(OC)ccc3n21,-10.9%
3,FC(F)(F)c1cccc(N2CCC(NCc3cccnc3)CC2)c1,26.9%
4,CC(=O)N1CC[C@H]2NC(=O)N(Cc3ccccc3)C(=O)[C@H]21,-1.45%
5,Cc1nn(C)c(C)c1C1CCCN1CC(=O)NCc1ccccn1 (centres undefined),-5.71%
6,Cn1cc(S(=O)(=O)N2CCCC2Cn2ccnc2)cn1 (centres undefined),-3.56%
7,CCC(=O)NC(C)c1ccccc1C (centres undefined),0.0127%
8,Cc1nn(C)c(N2CCOCC2)c1CNC1CCN(C2CC2)CC1,-6.05%
9,COc1ccc(OC)c(C(O)CN2CCN(C3CCCC3)CC2)c1 (centres undefined),-7.66%
10,CC(C(=O)Nc1cccc(F)c1)N(C)CCN1CCOCC1 (centres undefined),-4.4%
11,O=c1[nH]c(CCN2CCCC2Cn2cncn2)nc2ccccc12 (centres undefined),-9.5%
12,NC(=O)c1cncc(Oc2cccc(CN3CCCC3)c2Cl)n1,-4.84%
13,CN(C)C[C@H]1C[C@H](CO)CN(C(=O)c2cc(S(N)(=O)=O)ccc2F)C1,-3.55%
14,Cc1cnc(N2C[C@H]3C[C@H](C(=O)N4CCN(C)CC4)N(C)[C@H]3C2)nc1,-9.1%
15,CCS(=O)(=O)CCSc1cccc(C#N)c1,-23.7%
16,Cc1ccc(OCCC(=O)N2CCCC(n3nc(C)nc3C)C2)cc1 (centres undefined),-11.7%
17,COCCOc1ccc(CNc2cnc3ccccc3n2)cn1,-10.9%
18,Cc1ccc(N2CCCC(c3[nH]ncc3Cc3ccccc3)C2)nn1 (centres undefined),7.65%
19,Cc1cc(C)n(CCNC(=O)c2ncc[nH]2)c(=O)n1,-3.22%
20,CCN(CC)Cc1nnc2sc(C(C)Oc3ccccc3)nn12 (centres undefined),4.82%
21,O=C(c1cccnc1-n1cncn1)N1CCN(C2CCCC2)CC1,-5.59%
22,O=C1CC(c2ccccc2)C2(CCN(Cc3nccs3)CC2)N1 (centres undefined),-9.09%
23,Cn1nnc2cc(C(=O)N3CCCC3Cc3ccccc3)ccc21 (centres undefined),-1.35%

row,Compound,cytotoxicity at 70.5 h
1,Cc1cc(N(C)CC2COc3ccccc3O2)nc(N)n1 (centres undefined),-5.43%
2,CCOC(=O)[C@@H]1[C@@H](c2ccccc2)CN2CCN(C(=O)C3CC3)C[C@H]12,16.5%
3,Cc1nc(CN2CCCN(Cc3nc4ccccc4o3)CC2)no1,-8.61%
4,CCc1ccc2nc(C)cc(C(=O)N3C[C@H]4CCC[C@@]4(CO)C3)c2c1,-8.92%
5,Cc1ccc(-c2nnc(CN3CCCCC3Cn3cncn3)o2)cc1 (centres undefined),-12.6%
6,Cc1ncsc1C(=O)NCCNC(=O)Cc1cccc(F)c1,-6.49%
7,CCOCc1cnc2n1CCN(Cc1nc(C)cs1)C2C (centres undefined),-3.1%
8,Cc1nc(COc2ccc(OC(C)C(N)=O)cc2)oc1C (centres undefined),-0.152%
9,Cc1cccc(NCCNc2ccc(C#N)cn2)n1,-5.87%
10,CCN(CC)C(CNS(=O)(=O)c1ccc(C(C)=O)cc1)c1ccco1 (centres undefined),-3.55%
11,Cc1nc(C(C)C)sc1C(=O)N1CCC(C(N)=O)CC1,6%
12,CCCc1csc(-c2ccc(S(C)(=O)=O)cc2)n1,-1.59%
13,CC(C)OCCOCc1cccc(NC(=O)NCC(=O)N(C)C)c1,-2.88%
14,COc1ccc2c(c1)CN(c1cc(N3CCCC3CO)ncn1)CC2 (centres undefined),-7.51%
15,Cc1cc(NC(=O)CN2CCCC(Cn3cncn3)C2)on1 (centres undefined),-3%
16,Cc1nc(NCCO)cc(C(C)Cn2nc(C)c(C)c2C)n1 (centres undefined),-3.69%
17,Cc1ccc(CN2CCc3ncnc(-c4ccncc4)c3CC2)o1,-7.23%
18,CCC(CNC(=O)c1nc(=O)[nH][nH]1)Oc1cccc(C(F)(F)F)c1 (centres undefined),-3.8%
19,CC(NC(=O)NCCn1ccnc1)c1ccc2c(c1)OCCO2 (centres undefined),-14.3%
20,CC1(C)OCC2(CO1)CN(C(=O)c1ccccc1Cl)C2,-1.63%
21,CN1C(=O)[C@H]2CC[C@@H]1CN(C(=O)c1sccc1S(N)(=O)=O)C2,-4.92%
22,CCCN1CCCC2(CCN(Cc3cncn3C3CCCC3)C2)C1=O (centres undefined),-8.03%
23,CCCN(CCC)C(=O)c1sc(C)nc1C,-7.05%

row,Compound,cytotoxicity at 70.5 h
1,Cc1ccc(C(=O)Nc2cccc3c2C(=O)NC3)c(C)n1,2.51%
2,CN(C)CCCN(Cc1ccco1)Cc1ccnn1C1CCCCO1 (centres undefined),-8.64%
3,COc1ncccc1NC(=O)N(Cc1ccc(C(N)=O)cc1)C1CC1,-12.7%
4,CCc1noc(C)c1C(=O)N1CCC(c2[nH]ncc2S(C)(=O)=O)C1 (centres undefined),-4.87%
5,CC(C)Oc1cccc(CN2CCC(C(C)N3CCOCC3)CC2)c1 (centres undefined),-8.8%
6,COCCn1cc(C(=O)NCCS(N)(=O)=O)c2ccccc21,-7.1%
7,CN(Cc1cccnc1)CC1CNCc2nccn2C1 (centres undefined),4.1%
8,O=C(CCc1ccccc1)N1CCCCC1C1OCCO1 (centres undefined),-3.98%
9,COCc1ccc(C(=O)N(CCC#N)Cc2ccccn2)cc1,-3.02%
10,COc1ccc(C(=O)NCC(C)(O)CCc2ccccc2)cc1 (centres undefined),3.78%
11,COCC(C)NC(=O)NCCc1cccc(OC)c1O (centres undefined),8.57%
12,NCC(=O)N1CCCC1c1nccnc1Nc1ncccn1 (centres undefined),-1.95%
13,Cc1nc(NCCc2ccccc2)cc(C(=O)N2CCOCC2)n1,5.2%
14,Cc1ccccc1OCCC(=O)OC(C)C(=O)Nc1sccc1C(N)=O (centres undefined),-7.64%
15,O=C1NCC(CN2CCc3onc(-c4ccc(C(F)(F)F)cc4)c3C2)O1 (centres undefined),-17.3%
16,COc1ccc(-c2nnc([C@H]3CCN(CC4CC4)C3)o2)cc1,2.78%
17,CC(C)NC1CCN(CCc2ccc3c(c2)CCO3)CC1,9.93%
18,O=C(CSc1nc2c(cnn2CCO)c(=O)[nH]1)NC1CCCCC1,14.1%
19,c1cnn(CC2CCCN2Cc2noc(C3CC3)n2)c1 (centres undefined),-3.73%
20,CCn1nccc1CN(C)c1nc(N)nc2c1nc(C)n2C,-3.81%
21,Cc1ccc(-c2nc(CC(=O)NCC3CCCOC3)cs2)o1 (centres undefined),-0.602%
22,CCNC(=O)c1cc(OC)c(OC)cc1N(C)S(C)(=O)=O,-8.66%
23,Cc1cc(C)n(C2CN(CC(=O)N3CCOCC3)C2)n1,4.72%

row,Compound,cytotoxicity at 70.5 h
1,COc1ccc(C(=O)C2CCCN(Cc3cc(C)n[nH]3)C2)c(OC)c1 (centres undefined),-5.48%
2,COc1ccc(-c2cc(N)on2)cc1OC,-2.02%
3,CC(C)Oc1ccc(C(=O)N2CC[C@H](O)[C@@H](n3ccnc3)CC2)cc1,18.5%
4,CNC(=O)c1cc(S(=O)(=O)C(C)C)cs1,1.49%
5,COc1cc(CNC(=O)c2csc(Br)c2)ccn1,-12.9%
6,CC(=O)N1CCN(Cn2nc(-c3ccc(F)cc3)oc2=O)CC1,-8.85%
7,CCNC(=O)C1(Cc2cc(-c3ccccc3)no2)CCCN(C(C)=O)C1 (centres undefined),10.5%
8,O=S1(=O)C[C@@H]2[C@H](C1)N(Cc1ncc[nH]1)CCN2CCCc1ccccc1,-1.68%
9,COc1ccc(OC)c(CN2CCCCCC2c2cccs2)c1 (centres undefined),31.6%
10,CO[C@@H]1CCN(Cc2cccs2)[C@H]1Cc1ccncc1,-0.408%
11,CC(C(=O)N1CCCN(c2ncccc2C#N)CC1)n1cccn1 (centres undefined),-9.79%
12,CC(C(=O)NCCN1CCCCC1)n1cncn1 (centres undefined),-12.5%
13,CCc1nccn1C1CCCN(C(=O)c2cc(C3CC3)on2)C1 (centres undefined),-6.97%
14,Cc1ccoc1C(=O)N1C[C@@H]2COC[C@]2(COCc2cccnc2)C1,-0.687%
15,CS(=O)(=O)Cc1noc(CN2CCN(c3ccccc3Cl)CC2)n1,-76.6%
16,Cn1cnnc1C1CCCN(C(=O)c2cc(Cl)cc(Cl)c2)C1 (centres undefined),-8.15%
17,CC(C)(O)CSCCNCc1ccc(Cl)c2cccnc12,12.8%
18,CCC1=N[C@@]2(CC[C@@H]3CN(CC(=O)N(C)C)C[C@@H]32)C(=O)N1CC1CC1,-13.2%
19,O=C(c1cccc(Cl)c1Cl)N1CCN(CC(O)Cn2cccn2)CC1 (centres undefined),-2.95%
20,O=C1CC(C(=O)NCc2ccccc2Oc2ccccc2F)CCN1 (centres undefined),-1.83%
21,COCCNC(=O)[C@H]1C[C@H]2OCC[C@H]2N(Cc2ccoc2)C1,-3.39%
22,CCc1nnc2n1CCN(C(=O)CCOc1ccc(C)cc1C)C2,-4.53%
23,CN(C(=O)c1ccc(OCC(F)F)nc1)c1ccc2c(c1)CCO2,-4.77%

row,Compound,cytotoxicity at 70.5 h
1,Cc1occc1C(=O)N1C[C@@H]2[C@@H](C1)OCC(=O)N2Cc1cccnc1,-2.83%
2,O=C(NC1CCCNC1=O)c1ccc2nc(-c3ccc(F)cc3)cn2c1 (centres undefined),15%
3,O=C(Cc1cc(F)cc(Cl)c1)N[C@@H]1CCNC[C@H]1O,-5.4%
4,CNC(C)Cc1ccccc1Sc1ccc(O)cc1 (centres undefined),-8.32%
5,Cn1c(CN2CCCC2c2noc(C3CC3)n2)cc(=O)n(C)c1=O (centres undefined),-9.32%
6,COc1ccc(C(CNC(=O)Nc2cn[nH]c2)N2CCOCC2)cc1 (centres undefined),-4.89%
7,Cn1cc(C(=O)NCc2cn3c(n2)CN(CC2CCCC2)CC3)cn1,-112%
8,CC(=O)Nc1nc(C(=O)N2CCCC2Cn2cccn2)cs1 (centres undefined),-0.875%
9,CCc1cnc2c(c1Nc1ccc(C)c(F)c1)c(=O)n(C)c(=O)n2C,-8.17%
10,CN(Cc1cn2c(n1)CN(C1CCOC1)CC2)Cc1ccco1 (centres undefined),-8.22%
11,CCOc1cccc(CN2CCCn3nc(CNS(C)(=O)=O)cc3C2)c1,-9.54%
12,COc1cc(C)c(S(=O)(=O)CC(=O)N(C)C2CC2)cc1OC,15.2%
13,CCCn1ccnc1SCC(=O)NC(Cc1ccccc1)C(C)=O (centres undefined),1.89%
14,Cc1cc(N2CCC(CO)(CC3CCCCO3)CC2)nc2ccccc12 (centres undefined),-9.32%
15,NC(=O)CN1CCN(S(=O)(=O)N2CCCC2c2ccco2)CC1 (centres undefined),-3.32%
16,O=C(Nc1ccccc1Oc1cccc(F)c1)C1CCS(=O)(=O)C1 (centres undefined),-5.38%
17,Cc1cnn(C2CCCN(C(=O)CN(C)c3cnccn3)C2)c1 (centres undefined),-2.8%
18,c1ccc(Cn2ccnc2CN2CCCC2c2noc(C3CC3)n2)cc1 (centres undefined),8.17%
19,COc1ccccc1NC(=O)NC1(c2noc(CN(C)C)n2)CCCC1,22.4%
20,COCCn1ccnc1-c1cc(CN2CCCCC2)cs1,33.9%
21,COCCOCC(=O)Nc1ccc(C)cc1F,-7.66%
22,Cc1cccc(CN2C(=O)C[C@H]3[C@@H]2CCN3CC2CC2)n1,-2.5%
